Laboratory results: article PMC12775124, “CUL4A-DDB1-DCAF10 is an N-recognin for N-terminally acetylated Src kinases” (Nature Communications, 2026)

System: ZYG11B
Assay: Peptide pull-down with quantitative MS, HeLa lysate, ZYG11B
Type: binding, human (HeLa)
Settings: Nt-Ac vs Nt-free peptides
Experimental: Biotinylated 10-mer Nt-peptides (Nt-free, Nt-acetylated, and, where indicated, Nt-myristoylated; sequences in Supplementary Table 1) were synthesized with a C-terminal Lys3 spacer and biotin, immobilized on magnetic streptavidin beads, and incubated with HeLa or mouse liver lysates. After standardized washes, bound proteins were on-bead reduced/alkylated, digested with LysC/trypsin, desalted, and analysed by LC-MS in DIA mode (Orbitrap Exploris 480) as described previously. Variants included endogenous Nt-sequences, swap and mutant (Ala-Ala-Ala or Nt-amino acids) peptides, and pairwise comparisons of conditions of interest. Full buffer compositions, bead loading, wash schemes, and MS parameters are provided in the Supplementary Methods.
203 Supplementary Methods
205 Peptide sequences are listed in Supplementary Table 1. Peptide pull-downs were
Briefly, magnetic streptavidin beads (DynabeadsTM
Beads were then washed three times with PBS. After
210 washing, 1 mg of HeLa lysates or 2 mg of liver lysates was taken, and lysis buffer (75
Lysates were incubated with streptavidin
HeLa pull-downs were washed twice with lysis buffer and twice
Liver pulldowns were washed twice with cold low salt buffer (50 mM
220 individually ventilated cages under a 12-h light/dark cycle and were provided with sterile
All procedures were performed
No animal procedures were performed specifically for this […]

GAPATRRCVEKK [Nt-free TMEM97, Nt-peptide of TMEM97, Nt-free]
ZYG11B binding (in words): ZYG11B binding only to the Nt-free peptide of TMEM97
